We go through one compound from patent publication US20100298141A1, “SUBSTITUTED PYRIDINE N-OXIDE HERBICIDES” (E. I. DU PONT DE NEMOURS AND COMPANY, priority 2007, published 2010).

Assay [1] deals with corn (ZEAMD). Put plainly: Test H preemergence mixtures of compound 2 with crop safeners. It counts as in vivo, Zea mays cv. ‘Pioneer 33G26’. More on the design: key to ZEAMD Obsd. (observed effect): observed % effect, visually evaluated vs controls.
Assay [2] relates to giant foxtail (SETFA). Described as above. More on the design: key to SETFA Obsd. (observed effect): observed % effect, visually evaluated vs controls. It counts as in vivo, Setaria faberi.
Assay [3] relates to Italian ryegrass (LOLMU). Described as above. Set-up: key to LOLMU Obsd. (observed effect): observed % effect, visually evaluated vs controls. It counts as in vivo, Lolium multiflorum.
Assay [4] concerns winter wheat (TRZAW). The assay can be described thus: Test I preemergence mixtures of compound 2 with crop safeners. Type of assay: in vivo, Triticum aestivum. The note with it: alone. An excerpt:
(§1) Seeds of test plants consisting of winter wheat (TRZAW, Triticum aestivum), corn (ZEAMD, Zea mays cv. ‘Pioneer 33G26’), wild oat (AVEFA, Avena fatua), and Italian ryegrass (LOLMU, Lolium multiflorum) were planted into a blend of loam soil and sand and treated preemergence with a directed soil spray using test chemicals formulated in a non-phytotoxic solvent mixture that included a surfactant. Seeds of small-seeded species were planted about 1 cm deep; larger seeds were planted about 2.5 cm deep. […] Balanced fertilizer was applied through the watering system. Treatments consisted of Compound 2 and the above mentioned safeners alone and in combination using a spray volume of 457 L/ha. Each treatment was replicated four times. Treated plants and controls were maintained in a greenhouse for 14 to 21 days, after which time all species were compared to controls and visually evaluated. […] A dash (-) response means no test result. Colby's Equation was used to determine the herbicidal effects expected from the mixtures. Colby's Equation (Colby, S. […] Pa+b=Pa+Pb−(PaPb/100) wherein • Pa+b is the percentage effect of the mixture expected from additive contribution of the individual components, • Pa is the observed percentage effect of the first active ingredient at the same use rate as in the mixture, and • Pb is the observed percentage effect of the second active ingredient at the same use rate as in the mixture.

The subject of assay [5] is wild oat (AVEFA). The description is as above. Type of assay: in vivo, Avena fatua. Conditions: alone.
From the text: as §1

For assay [6], the system named is Italian ryegrass (LOLMU). Described as above. The note with it: alone. It counts as in vivo, Lolium multiflorum.
From the text: as §1

The test system of assay [7] is winter wheat (TRZAW). Put plainly: Test J preemergence mixtures of Compound 2 with crop safeners. Type of assay: in vivo, Triticum aestivum. Set-up: key to TRZAW Obsd. (observed effect): observed % herbicidal effect.
The test system of assay [8] is corn (ZEAMD). The assay is described as above. Type of assay: in vivo, Zea mays cv. ‘Pioneer 33G26’. More on the design: key to ZEAMD Obsd. (observed effect): observed % herbicidal effect.
The mark [9] stands for this setting: Cmpd 2 alone 125 g a.i./ha, scale 0 to 100, mean of four replicates.
The mark [10] stands for this setting: single active ingredient alone at 125 g a.i./ha.

Molecules are shown by their SMILES.

Turning to `Cc1cc[n+]([O-])c(S(=O)(=O)Cc2c(C(F)(F)F)nn(C)c2OC(F)F)c1` [Compound 2], the “Plant response rating ZEAMD Obsd.” value in assay [1] (setting [9]) was 15. Besides, the “ZEAMD Obsd. (observed effect)” value amounted to 15 in assay [1] (Test H, alone, 125 g a.i./ha) and 35 in assay [8] (Test J, alone, 125 g a.i./ha). The “Plant response rating SETFA Obsd.” value in assay [2] (setting [9]) is listed as 100. In addition, in assay [2] (Test H, alone, 125 g a.i./ha), the “SETFA Obsd. (observed effect)” value is recorded as 100. The “Plant response rating LOLMU Obsd.” value in assay [3] (setting [9]) came out at 53. In addition, the “LOLMU Obsd. (observed effect)” value in assay [3] (Test H, alone, 125 g a.i./ha) is given as 53; in assay [6] (125 g a.i./ha) it was 48; in assay [6] (250 g a.i./ha), 89. Further, the “TRZAW Obsd. (observed effect)” value was determined as 93 in assay [4] (125 g a.i./ha); 100 in assay [4] (250 g a.i./ha); 100 in assay [7] (Test J, alone, 125 g a.i./ha). Moreover, the results for the “AVEFA Obsd. (observed effect)” value in assay [5] (125 g a.i./ha) and in assay [5] (250 g a.i./ha) were 93 and 96, respectively. Moreover, in assay [7] (setting [10]), the “Observed effect (Obsd.), TRZAW” value is listed as 100%. Moreover, the “Observed effect (Obsd.), ZEAMD” value in assay [8] (setting [10]) worked out at 35%.
